The first data set concerns EVI2B. Kind of data set: siRNA dose response, EVI2B mRNA knockdown, bDNA Assay. Particulars: A172, 24 hr. Format: cell-based, human. As for the experimental part:
(§1) Dose response curves for siRNAs were generated in vitro using a variety of cell lines according to Table 4.
(§2) Briefly, cells were seeded in 96-well plates and reverse transfected with siRNA, Lipofectamine® 2000 (0.5 uL/well; ThermoFisher), and, in some cases, a reporter plasmid (50 ng/well). The reporter plasmid (psiCHECK™-2, Promega) encoded both firefly luciferase and the gene of interest fused to renilla luciferase; silencing of the gene of interest results in proportional silencing of renilla luciferase but leaves firefly luciferase unaffected as an internal control.
(§3) After 24 hr incubation at 37° C., mRNA knockdown was measured using an endpoint assay. For targets without a reporter plasmid, a branched DNA (bDNA) assay was performed according to the manufacturer's instructions (QuantiGene® Singleplex Gene Expression Assay, ThermoFisher) to measure both the target gene and GAPDH (housekeeping gene) mRNA. Data are plotted as siRNA concentration (nM) vs. remaining mRNA (ratio of target gene to GAPDH, normalized to mock siRNA-transfected cells). For targets with a reporter plasmid, a Dual-Glo® Luciferase Assay was performed according to the manufacturer's instructions (Promega) to measure firefly and renilla luciferase expression. Data are plotted as siRNA concentration (nM) vs. remaining mRNA (ratio of renilla to firefly luminescence, normalized to mock siRNA-transfected cells).
(§4) For all dose response curves, a 4-parameter logistic model was applied to determine the IC50 of each siRNA sequence (Table 5 and FIG. 2). Data shown in Table 5 and FIG. 2 represent the mean of quadruplicates, +/−standard deviation.
Take “XD-10481: siRNA targeting EVI2B (sense 5'-cuuuGGGucAAccaAcAcAdTsdT-3'; antisense 5'-UGUGUUGGUUGACCcAAAGdTsdT-3'; RNA with 2'-O-methyl and phosphorothioate modifications, case key not given here, as printed in the source, key not given here)”: inhibition was half-maximal at 0.169 nM (IC50).

The test system of another data set is CD37. Kind of data set: siRNA dose response, CD37 mRNA knockdown, bDNA Assay. Format: cell-based, human. Particulars: THP-1, 24 hr. How it is done:
as §1, §2, §3, §4
Regarding “XD-09770: siRNA targeting CD37 (sense 5'-gcuuGcGGGAcGucGuAGAdTsdT-3'; antisense 5'-UCuACGACGUCCCGcAAGCdTsdT-3'; RNA with 2'-O-methyl and phosphorothioate modifications, case key not given here, as printed in the source, key not given here)”, the half-inhibitory concentration (IC50) (as a rule, the concentration that inhibits the measured activity by half) turned out to be 0.553 nM.
Regarding “XD-09771: siRNA targeting CD37 (sense 5'-gacGucGuAGAGAaAAccAdTsdT-3'; antisense 5'-UGGUUUUCUCuACGACGUCdTsdT-3'; RNA with 2'-O-methyl and phosphorothioate modifications, case key not given here, as printed in the source, key not given here)”, the 50% inhibitory concentration (IC50) amounted to 0.388 nM.
Take “XD-09773: siRNA targeting CD37 (sense 5'-cgAccAAcGAcuccAcAAudTsdT-3'; antisense 5'-AUUGUGGAGUCGUUGGUCGdTsdT-3'; RNA with 2'-O-methyl and phosphorothioate modifications, case key not given here, as printed in the source, key not given here)”: the half-inhibitory concentration (IC50) stood at 0.311 nM.
“XD-09774: siRNA targeting CD37 (sense 5'-ccAAcGAcuccAcaAuccudTsdT-3'; antisense 5'-AGGAUUGUGGAGUCGUUGGdTsdT-3'; RNA with 2'-O-methyl and phosphorothioate modifications, case key not given here, as printed in the source, key not given here)” gave a half-inhibitory concentration (IC50) of 0.129 nM.
Consider “XD-09775: siRNA targeting CD37 (sense 5'-ccAcAAuccuAGAuAAGGudTsdT-3'; antisense 5'-ACCUuAUCuAGGAUUGUGGdTsdT-3'; RNA with 2'-O-methyl and phosphorothioate modifications, case key not given here, as printed in the source, key not given here)”, for which the IC50 came to 1.6 nM.
In turn, “XD-09776: siRNA targeting CD37 (sense 5'-ggcuGcAcAAcAAccuuAudTsdT-3'; antisense 5'-AuAAGGUUGUUGUGcAGCCdTsdT-3'; RNA with 2'-O-methyl and phosphorothioate modifications, case key not given here, as printed in the source, key not given here)” returned a half-inhibitory concentration (IC50) of 1.32 nM.
“XD-09777: siRNA targeting CD37 (sense 5'-guucAuGAcGcucucGAuAdTsdT-3'; antisense 5'-uAUCGAGAGCGUcAUGAACdTsdT-3'; RNA with 2'-O-methyl and phosphorothioate modifications, case key not given here, as printed in the source, key not given here)” returned a half-inhibitory concentration (IC50) of 0.414 nM.
The substance “XD-09778: siRNA targeting CD37 (sense 5'-cgGcucGcucGAuaccGuudTsdT-3'; antisense 5'-AACGGuAUCGAGCGAGCCGdTsdT-3'; RNA with 2'-O-methyl and phosphorothioate modifications, case key not given here, as printed in the source, key not given here)” gave a half-inhibitory concentration (IC50) of 11.4 nM.
With “XD-09779: siRNA targeting CD37 (sense 5'-accAcccAcAAGAuuAuuudTsdT-3'; antisense 5'-AAAuAAUCUUGUGGGUGGUdTsdT-3'; RNA with 2'-O-methyl and phosphorothioate modifications, case key not given here, as printed in the source, key not given here)”, the 50% inhibitory concentration (IC50) is under 0.005 nM.

The values above are taken from patent US20210189342A1, “COMPOSITIONS AND METHODS FOR MODULATING MONOCYTE AND MACROPHAGE INFLAMMATORY PHENOTYPES AND IMMUNOTHERAPY USES THEREOF” (Verseau Therapeutics, Inc., priority 2018, published 2021).
